We go through 37 molecules from US20110312941A1, “1,4-DISUBSTITUTED PIPERIDINES AS VASOPRESSIN RECEPTOR VIA ANTAGONISTS” (VANTIA LIMITED, priority 2009, published 2011).

Experiment [1] deals with T1, cloned human V1a receptor (Homo sapiens, UniProt P37288).
T1 construct: host or cells: human brain astrocytoma 1321N1 cells
As to the kind of experiment: in vitro functional calcium mobilisation assay (FLIPR), antagonist activity, 1321N1 cells, 250 pM AVP. Format: cell-based. To be noted: functional pKi derived from pIC50 (Equation 1), FLIPR Ca2+ mobilisation, 1321N1 cells expressing cloned human V1a receptor; for Ki: read-out: Mean fpKi (Human V1a) (converted). The method in brief: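 Antagonism measured as inhibition of calcium mobilisation induced by 250 pM AVP, with increasing compound concentrations, in 1321N1 astrocytoma cells stably expressing the receptor. pIC50 from 4-parameter logistic fit, converted to functional pKi using agonist concentration and agonist EC50.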
A general note: Calcium flux is commonly read through the fluorescence of an indicator in the cells.

A further experiment relates to dysmenorrhoea. The settings on record: clinical study, compared to patients taking placebo; cited from earlier work.

T1 sequence (P37288 whole entry): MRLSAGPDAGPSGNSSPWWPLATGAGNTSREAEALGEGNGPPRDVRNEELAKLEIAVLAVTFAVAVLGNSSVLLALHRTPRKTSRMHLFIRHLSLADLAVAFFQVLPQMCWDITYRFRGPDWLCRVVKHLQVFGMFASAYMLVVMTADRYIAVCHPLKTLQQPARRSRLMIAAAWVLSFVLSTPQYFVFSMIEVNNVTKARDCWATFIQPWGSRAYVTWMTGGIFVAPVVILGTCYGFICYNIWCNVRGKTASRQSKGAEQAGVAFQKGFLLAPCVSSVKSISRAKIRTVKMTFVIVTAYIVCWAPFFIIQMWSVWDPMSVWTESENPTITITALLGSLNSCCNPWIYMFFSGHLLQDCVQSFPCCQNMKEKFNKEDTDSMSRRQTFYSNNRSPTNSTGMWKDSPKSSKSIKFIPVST

`O=C(C1CCN(c2ncccn2)CC1)N1Cc2cccn2Cc2ccccc21` [Example 143]: the Ki in experiment [1] was 117 nM. On the same count and under the same terms, the value for `O=C(C1CCN(c2ccccn2)CC1)N1Cc2cccn2Cc2ccccc21` [Example 144] was 3.16 nM; that for `Cc1ccc(N2CCC(C(=O)N3Cc4cccn4Cc4ccccc43)CC2)nc1` [Example 145] was 15.1 nM; that for `O=C(C1CCN(c2cccnc2)CC1)N1Cc2cccn2Cc2ccccc21` [Example 146] was 31.6 nM. The same measure, in the same setting: the result for `O=C(C1CCN(c2ccncc2)CC1)N1Cc2cccn2Cc2ccccc21` [Example 147] reads 1480 nM; that for `O=C(C1CCN(c2cnccn2)CC1)N1Cc2cccn2Cc2ccccc21` [Example 148], 28.2 nM. On the same count and under the same terms, the value for `O=C(C1CCN(c2ccccc2)CC1)N1Cc2cccn2Cc2ccccc21` [Example 149] was 0.589 nM; that for `O=C(C1CCN(c2ccccn2)CC1)N1Cc2cccn2Cc2cc(F)ccc21` [Example 150] was 1.91 nM.

For the molecule `O=C(C1CCN(c2ccccc2)CC1)N1Cc2cccn2Cc2cc(F)ccc21` [Example 151], the Ki in experiment [1] is 0.794 nM. Still for that read-out and setting: the value for `Cc1ccc2c(c1)Cn1cccc1CN2C(=O)C1CCN(c2ccccn2)CC1` [Example 152] was 0.631 nM; that for `Cc1ccc2c(c1)Cn1cccc1CN2C(=O)C1CCN(c2ccccc2)CC1` [Example 153] was 0.234 nM. Same read-out and setting: the value for `O=C(C1CCN(c2ccccc2F)CC1)N1Cc2cccn2Cc2ccccc21` [Example 154] was 1.48 nM; that for `O=C(C1CCN(c2cccc(F)c2)CC1)N1Cc2cccn2Cc2ccccc21` [Example 155] was 4.57 nM; that for `O=C(C1CCN(c2ccc(F)cc2)CC1)N1Cc2cccn2Cc2ccccc21` [Example 156] was 1.45 nM. Same read-out and setting: the value for `O=C(C1CCN(c2ccccc2Cl)CC1)N1Cc2cccn2Cc2ccccc21` [Example 157] was 7.59 nM; that for `O=C(C1CCN(c2ccc(Cl)cc2)CC1)N1Cc2cccn2Cc2ccccc21` [Example 158] was 4.79 nM; that for `Cc1ccccc1N1CCC(C(=O)N2Cc3cccn3Cc3ccccc32)CC1` [Example 159] was 10.5 nM.

For `Cc1cccc(N2CCC(C(=O)N3Cc4cccn4Cc4ccccc43)CC2)c1` [Example 160], in experiment [1], the Ki is 3.16 nM. On the same count and under the same terms, the result for `Cc1ccc(N2CCC(C(=O)N3Cc4cccn4Cc4ccccc43)CC2)cc1` [Example 161] reads 1.12 nM; that for `COc1ccccc1N1CCC(C(=O)N2Cc3cccn3Cc3ccccc32)CC1` [Example 162], 3.16 nM; that for `COc1cccc(N2CCC(C(=O)N3Cc4cccn4Cc4ccccc43)CC2)c1` [Example 163], 5.62 nM. On the same count and under the same terms, the result for `COc1ccc(N2CCC(C(=O)N3Cc4cccn4Cc4ccccc43)CC2)cc1` [Example 164] reads 14.1 nM; that for `CCc1ccc(N2CCC(C(=O)N3Cc4cccn4Cc4ccccc43)CC2)cc1` [Example 165], 1.55 nM. Same read-out and setting: the result for `CCCc1ccc(N2CCC(C(=O)N3Cc4cccn4Cc4ccccc43)CC2)cc1` [Example 166] reads 3.89 nM. In the case of `CC(C)c1ccc(N2CCC(C(=O)N3Cc4cccn4Cc4ccccc43)CC2)cc1` [Example 167], the Ki in experiment [1] was 3.63 nM.

With `O=C(C1CCN(c2cccc(-c3ccccc3)c2)CC1)N1Cc2cccn2Cc2ccccc21` [Example 168], the Ki in experiment [1] is 151 nM. Same read-out and setting: the result for `O=C(C1CCN(c2ccc(C(F)(F)F)cc2)CC1)N1Cc2cccn2Cc2ccccc21` [Example 169] reads 30.9 nM.

`N#Cc1cccc(N2CCC(C(=O)N3Cc4cccn4Cc4ccccc43)CC2)c1` [Example 170]: the Ki in experiment [1] was 25.7 nM. Same read-out and setting: the result for `N#Cc1ccc(N2CCC(C(=O)N3Cc4cccn4Cc4ccccc43)CC2)cc1` [Example 171] reads 214 nM; that for `O=C(C1CCN(c2cccc([N+](=O)[O-])c2)CC1)N1Cc2cccn2Cc2ccccc21` [Example 173], 17 nM. Still for that read-out and setting: the value for `O=C(C1CCN(c2ccc([N+](=O)[O-])cc2)CC1)N1Cc2cccn2Cc2ccccc21` [Example 174] was 162 nM; that for `Nc1ccccc1N1CCC(C(=O)N2Cc3cccn3Cc3ccccc32)CC1` [Example 175, [1-(2-Amino-phenyl)-piperidin-4-yl]-(5H,11H-benzo[e]pyrrolo[1,2-a][1,4]diazepin-10-yl)-methanone] was 3.98 nM. Take `Nc1ccc(N2CCC(C(=O)N3Cc4cccn4Cc4ccccc43)CC2)cc1` [Example 176]: in experiment [1], the Ki is 2.51 nM. On the same count and under the same terms, the result for `NCc1ccccc1N1CCC(C(=O)N2Cc3cccn3Cc3ccccc32)CC1` [Example 177, [1-(2-Aminomethyl-phenyl)-piperidin-4-yl]-(5H,11H-benzo[e]pyrrolo[1,2-a][1,4]diazepin-10-yl)-methanone] reads 28.8 nM; that for `NCc1ccc(N2CCC(C(=O)N3Cc4cccn4Cc4ccccc43)CC2)cc1` [Example 178], 97.7 nM. Consider `COc1ccc(S(=O)(=O)N2c3ccc(Cl)cc3[C@](O)(c3ccccc3Cl)[C@@H]2C(=O)N2CCC[C@H]2C(N)=O)cc1OC` [SR49059], for which, in the experiment with dysmenorrhoea, the “amount of additional pain-killer taken” value is reported as “dose-related decrease in the amount of additional pain-killer taken” and the pain result is given as “dose-related decrease in pain”. For “(5H,11H-Benzo[e]pyrrolo[1,2-a][1,4]diazepin-10-yl)-[1-(2-nitro-phenyl)-piperidin-4-yl]-methanone [Example 172]”, the “Mean fpKi (Human V1a)” value in experiment [1] is 7.35.
